Measured values from the NIST ThermoML archive (doi:10.1016/j.jct.2009.03.009).
Numbers after ± are expanded uncertainties.

Assays:
[1] = xn = mol fraction of the nth substance listed; conditions: 313.15 K, 101 kPa, Liquid; for speed of sound: Sing-around technique in a fixed-path interferometer; for mass density: Vibrating tube method
[2] = refractive index (Na D-line) (dimensionless); xn = mol fraction of the nth substance listed; conditions: 313.15 K, 101 kPa, Liquid, Standard Abbe refractometry

CCCCCCCC [octane] + Cc1ccccc1
speed of sound ([1]; x1 = 0.0542): 1226.2 ± 2.2 m/s | speed of sound ([1]; x1 = 0.1022): 1214.8 ± 2.2 m/s | speed of sound ([1]; x1 = 0.2014): 1194.1 ± 2.2 m/s | speed of sound ([1]; x1 = 0.3037): 1176.2 ± 2.2 m/s | speed of sound ([1]; x1 = 0.3965): 1162.3 ± 2.2 m/s | speed of sound ([1]; x1 = 0.4983): 1149.7 ± 2.2 m/s | speed of sound ([1]; x1 = 0.5986): 1139.1 ± 2.2 m/s | speed of sound ([1]; x1 = 0.7016): 1130 ± 2.2 m/s | speed of sound ([1]; x1 = 0.8007): 1122.5 ± 2.2 m/s | speed of sound ([1]; x1 = 0.902): 1116.1 ± 2.2 m/s | speed of sound ([1]; x1 = 0.9493): 1113.1 ± 2.2 m/s | speed of sound ([1]; x1 = 1): 1110.6 ± 2.2 m/s | mass density ([1]; x1 = 0.0542): 834.6 ± 0.2 kg/m3 | mass density ([1]; x1 = 0.1022): 823.4 ± 0.2 kg/m3 | mass density ([1]; x1 = 0.2014): 802 ± 0.2 kg/m3 | mass density ([1]; x1 = 0.3037): 782 ± 0.2 kg/m3 | mass density ([1]; x1 = 0.3965): 765.5 ± 0.3 kg/m3 | mass density ([1]; x1 = 0.4983): 749.1 ± 0.3 kg/m3 | mass density ([1]; x1 = 0.5986): 734.3 ± 0.3 kg/m3 | mass density ([1]; x1 = 0.7016): 720.5 ± 0.3 kg/m3 | mass density ([1]; x1 = 0.8007): 708.4 ± 0.3 kg/m3 | mass density ([1]; x1 = 0.902): 696.6 ± 0.3 kg/m3 | mass density ([1]; x1 = 0.9493): 691.6 ± 0.3 kg/m3 | mass density ([1]; x1 = 1): 686.3 ± 0.3 kg/m3 | refractive index ([2]; x1 = 0.0542): 1.47708 ± 0.00068 | refractive index ([2]; x1 = 0.1022): 1.46982 ± 0.00068 | refractive index ([2]; x1 = 0.2014): 1.45667 ± 0.00068 | refractive index ([2]; x1 = 0.3037): 1.44463 ± 0.00068 | refractive index ([2]; x1 = 0.3965): 1.43362 ± 0.00068 | refractive index ([2]; x1 = 0.4983): 1.42473 ± 0.00068 | refractive index ([2]; x1 = 0.5986): 1.41567 ± 0.00068 | refractive index ([2]; x1 = 0.7016): 1.4075 ± 0.00068 | refractive index ([2]; x1 = 0.8007): 1.40046 ± 0.00068 | refractive index ([2]; x1 = 0.902): 1.39376 ± 0.00068 | refractive index ([2]; x1 = 0.9493): 1.39079 ± 0.00068 | refractive index ([2]; x1 = 1): 1.38769 ± 0.00068

CCCCCCCC [octane] + c1ccccc1
speed of sound ([1]; x1 = 0.0541): 1210.5 ± 2.2 m/s | speed of sound ([1]; x1 = 0.1014): 1196.3 ± 2.2 m/s | speed of sound ([1]; x1 = 0.202): 1172.2 ± 2.2 m/s | speed of sound ([1]; x1 = 0.3022): 1154.3 ± 2.2 m/s | speed of sound ([1]; x1 = 0.404): 1140.9 ± 2.2 m/s | speed of sound ([1]; x1 = 0.5023): 1131 ± 2.2 m/s | speed of sound ([1]; x1 = 0.6011): 1123.7 ± 2.2 m/s | speed of sound ([1]; x1 = 0.7087): 1118 ± 2.2 m/s | speed of sound ([1]; x1 = 0.8051): 1114.4 ± 2.2 m/s | speed of sound ([1]; x1 = 0.9015): 1112.1 ± 2.2 m/s | speed of sound ([1]; x1 = 0.9514): 1111.2 ± 2.2 m/s | speed of sound ([1]; x1 = 1): 1110.6 ± 2.2 m/s | mass density ([1]; x1 = 0.0541): 839.6 ± 0.2 kg/m3 | mass density ([1]; x1 = 0.1014): 825.5 ± 0.2 kg/m3 | mass density ([1]; x1 = 0.202): 799.3 ± 0.2 kg/m3 | mass density ([1]; x1 = 0.3022): 777.2 ± 0.2 kg/m3 | mass density ([1]; x1 = 0.404): 758.4 ± 0.3 kg/m3 | mass density ([1]; x1 = 0.5023): 742.2 ± 0.3 kg/m3 | mass density ([1]; x1 = 0.6011): 728.3 ± 0.3 kg/m3 | mass density ([1]; x1 = 0.7087): 714.9 ± 0.3 kg/m3 | mass density ([1]; x1 = 0.8051): 704.4 ± 0.3 kg/m3 | mass density ([1]; x1 = 0.9015): 695 ± 0.3 kg/m3 | mass density ([1]; x1 = 0.9514): 690.5 ± 0.3 kg/m3 | mass density ([1]; x1 = 1): 686.3 ± 0.3 kg/m3 | refractive index ([2]; x1 = 0.0541): 1.4762 ± 0.00068 | refractive index ([2]; x1 = 0.1014): 1.46817 ± 0.00068 | refractive index ([2]; x1 = 0.202): 1.45259 ± 0.00068 | refractive index ([2]; x1 = 0.3022): 1.4384 ± 0.00068 | refractive index ([2]; x1 = 0.404): 1.42757 ± 0.00068 | refractive index ([2]; x1 = 0.5023): 1.41799 ± 0.00068 | refractive index ([2]; x1 = 0.6011): 1.41072 ± 0.00068 | refractive index ([2]; x1 = 0.7087): 1.4035 ± 0.00068 | refractive index ([2]; x1 = 0.8051): 1.3977 ± 0.00068 | refractive index ([2]; x1 = 0.9015): 1.39253 ± 0.00068 | refractive index ([2]; x1 = 0.9514): 1.39004 ± 0.00068 | refractive index ([2]; x1 = 1): 1.38769 ± 0.00068

Cc1ccccc1 [toluene] + CCCCCC
speed of sound ([1]; x2 = 0): 1240.7 ± 2.2 m/s | mass density ([1]; x2 = 0): 848 ± 0.2 kg/m3 | refractive index ([2]; x2 = 0): 1.48464 ± 0.00068

Cc1ccccc1 [toluene] + CCCCCCC
speed of sound ([1]; x2 = 0): 1240.7 ± 2.2 m/s | speed of sound ([1]; x2 = 0.0496): 1225.2 ± 2.2 m/s | speed of sound ([1]; x2 = 0.1037): 1211.4 ± 2.2 m/s | speed of sound ([1]; x2 = 0.204): 1185.7 ± 2.2 m/s | speed of sound ([1]; x2 = 0.406): 1144.8 ± 2.2 m/s | speed of sound ([1]; x2 = 0.5045): 1127.8 ± 2.2 m/s | speed of sound ([1]; x2 = 0.6016): 1113.1 ± 2.2 m/s | speed of sound ([1]; x2 = 0.7011): 1099.4 ± 2.2 m/s | speed of sound ([1]; x2 = 0.8029): 1087 ± 2.2 m/s | speed of sound ([1]; x2 = 0.9019): 1075.9 ± 2.2 m/s | speed of sound ([1]; x2 = 0.9517): 1071.2 ± 2.2 m/s | mass density ([1]; x2 = 0): 848 ± 0.2 kg/m3 | mass density ([1]; x2 = 0.0496): 835.7 ± 0.2 kg/m3 | mass density ([1]; x2 = 0.1037): 822.8 ± 0.2 kg/m3 | mass density ([1]; x2 = 0.204): 800.2 ± 0.2 kg/m3 | mass density ([1]; x2 = 0.406): 759.4 ± 0.3 kg/m3 | mass density ([1]; x2 = 0.5045): 741.5 ± 0.3 kg/m3 | mass density ([1]; x2 = 0.6016): 724.9 ± 0.3 kg/m3 | mass density ([1]; x2 = 0.7011): 709 ± 0.3 kg/m3 | mass density ([1]; x2 = 0.8029): 693.7 ± 0.3 kg/m3 | mass density ([1]; x2 = 0.9019): 679.7 ± 0.3 kg/m3 | mass density ([1]; x2 = 0.9517): 673 ± 0.3 kg/m3 | refractive index ([2]; x2 = 0): 1.48464 ± 0.00068 | refractive index ([2]; x2 = 0.0496): 1.47712 ± 0.00068 | refractive index ([2]; x2 = 0.1037): 1.46965 ± 0.00068 | refractive index ([2]; x2 = 0.204): 1.45586 ± 0.00068 | refractive index ([2]; x2 = 0.406): 1.43176 ± 0.00068 | refractive index ([2]; x2 = 0.5045): 1.42117 ± 0.00068 | refractive index ([2]; x2 = 0.6016): 1.41138 ± 0.00068 | refractive index ([2]; x2 = 0.7011): 1.40201 ± 0.00068 | refractive index ([2]; x2 = 0.8029): 1.39298 ± 0.00068 | refractive index ([2]; x2 = 0.9019): 1.38489 ± 0.00068 | refractive index ([2]; x2 = 0.9517): 1.38102 ± 0.00068

Cc1ccccc1 [toluene] + CCCCCCCC
speed of sound ([1]; x2 = 0): 1240.7 ± 2.2 m/s | mass density ([1]; x2 = 0): 848 ± 0.2 kg/m3 | refractive index ([2]; x2 = 0): 1.48509 ± 0.00068

Cc1ccccc1 [toluene] + CCCCCCCCC
speed of sound ([1]; x2 = 0): 1240.7 ± 2.2 m/s | mass density ([1]; x2 = 0): 848 ± 0.2 kg/m3 | refractive index ([2]; x2 = 0): 1.48464 ± 0.00068
